Results on nine compounds are retold here after US4144236A (priority 1973, dated 1979).

By LD50 is commonly meant the dose expected to kill half of the subjects tested. A lower LD50 goes with a more toxic substance.

Like-named read-outs stand apart in the source and are kept apart here.

The text on data set [1]:
^++ D'Amour,D.E. and Smith,D.L.: J.Pharm.Expt.Ther. 72. 74 (1941)

Data set [2] has as its system citric acid aerosol induced cough. The data set can be described thus: animal or person. In kind it is in vivo, Wistar rats. Particulars: for ED50: Rattus norvegicus, read-out: AtD50. How it is done:
The anti-tussive activity in rats was tested by the method of Gosswald. Wistar rats weighing 130 to 180 g were placed in a plexi box (23 × 22 × 11 cm) and cough responses were elicited by citric acid aerosol (10%). The latency period of cough was measured before and after drug administration. The control latency was determined 18 hours before the drug administration. Animals with less than 60 second control latency were used for the experiments. […] Each animal was exposed to citric acid aerosol for a period of 3 minutes 30 seconds and 60 minutes after drug administration. […] Ten animals were used at each dose level. The anti-tussive dose (AtD50) was calculated according to Litchfield and Wilcoxon. The drugs were administered by subcutaneous and oral routes.

Data set [3] deals with electrical stimulation induced coughing. Kind of data set: Anti-tussive activity: electrical stimulation (superior laryngeal nerve) induced coughing in cats (method of Domenjoz). In kind it is in vivo. Particulars: for ED50 / ED100: Felis catus; for ED50: read-out: AtD50; for ED100: read-out: AtD100. How it is done: Anti-tussive activity in cats was determined by the method of Domenjoz. Cats weighing 2.5 to 3.5 kg were anesthetized with an i.p. dose of 30 mg per kg of sodium pentobarbitone. […] The cough responses were measured by means of a Marey-tambour connected to a face mask and recorded on a smoked paper. Drugs were given intravenously in increasing doses. The effect of each dose was measured on at least five cats. The effects of the drug was calculated from the changes of amplitude of cough curves. If no coughing was produced by two successive stimulations, the dose was taken as the effective anti-tussive dose (AtD100). The anti-tussive dose (AtD50) which reduces the control response by 50% was calculated by the method of Litchfield and Wilcoxon.

Data set [4] is described as follows: Blood pressure changes in anesthetized cats. Particulars: for Change in blood pressure: drop from control. How it is done:
Blood pressure changes were studied in cats anesthetized with pentabarbitone sodium (35 mg/kg, i.p.). The substances were injected into the right femoral vein, responses to drugs were measured by means of a mercury manometer and recorded on a smoke cylinder.

A short description of data set [5]: Analgesic ED50, hot plate test, i.p. (footnote of Table 4). In kind it is in vivo. Particulars: for ED50: ip, read-out: ED50 (analgesic). How it is done: 0.025 mg./kg. i.p., Compound "A": 0.0125 mg./kg. i.p. (measured by the ho
Background: In hot-plate and tail-flick tests a longer latency is read as antinociception.

The source holds these as a separate data set.
The next data set is described as follows: in vivo. Particulars: rat, sc.
A short description of data set [6]: Analgesic activity, writhing test (Van der Wende and Margolin), s.c., mice. Particulars: Mus musculus, sc, read-out: ED50 (Writhing test).
A short description of data set [7]: Physical dependency disposition test (spring-test; jumping after naloxone) for 2 days on mice. Particulars: Haloxone 100 mg./kg., 2nd day; for Average jump per mouse: mice.
Experimental: ^+ The total dosage was added intraperitoneally in seven, gradually
increasing increments, within 26 hours.
[8] abbreviates: rats, s.c., 95% confidence limits on the next line.
Setting [9] is: sc, rats, s.c., limits in brackets.
The mark [10] stands for this setting: rats, s.c., 95% confidence limits given.
[11] abbreviates: total dosage 10 i.p. in 26 hours.
Where [12] appears, read: total dosage 70 i.p. in 26 hours.
The mark [13] stands for this setting: cats, i.v., no coughing by two successive stimulations.
Where [14] appears, read: total dosage 100 i.p. in 26 hours.
[15] abbreviates: total dosage 200 i.p. in 26 hours.
Setting [16] is: total dosage 400 i.p. in 26 hours.
Where [17] appears, read: total dosage 1000 i.p. in 26 hours.
Where [18] appears, read: total dosage 1 i.p. in 26 hours.
[19] abbreviates: total dosage 40 i.p. in 26 hours.
Setting [20] is: anesthetized cats, 0.5 mg/kg i.v.
Where [21] appears, read: anesthetized cats, 0.5 mg/kg i.v., means ± S.E.
The mark [22] stands for this setting: iv, cats, i.v., no coughing by two successive stimulations.

With `CN1CC[C@]23c4c5ccc(O)c4O[C@H]2[C@H](N=[N+]=[N-])CC[C@@]3(O)[C@H]1C5` [Compound "A", 6-deoxy-6-azido-14-hydroxy-7,8-dihydroisomorphine], the “ED50 (tail flick test)” value in data set [1] (setting [8]) was determined as 0.029 s.c. mg./kg. For the same compound, the ED50 in [2] (po) is 10 mg/kg; in data set [2] (setting [9]) it was 0.021 mg/kg; in data set [3] (iv), 0.012 mg/kg; in data set [5] (hot plate test), 0.0125 mg/kg; in [6], 0.051 mg/kg. Also, the “anti-tussive activity in words” value in [2] (rat, in vivo) is reported as “superior anti-tussive to those anti-tussives currently in use”. Moreover, the “Ratio codeine/drug (AtD50)” value in data set [2] (rat, in vivo, po) was 10.00; in [2] (rats, s.c.), 904.76; in data set [3] (in vivo, iv), 120.83. Further, the “potency as an anti-tussive relative to codeine” value in data set [2] (rat, in vivo, sc) is 904 times. For the same compound, the ED100 in data set [3] (iv) stood at 0.02 ± 0.002 mg/kg. Moreover, in [3] (in vivo, iv), the “Ratio codeine/drug (AtD100)” value was 253.50. Further, the “tolerance to the vasodepressor responses” value in data set [4] (in vivo) was “cross tolerance between morphine, codeine, azidomorphine and 14-hydroxyazidomorphine* was observed”. Besides, the “blood pressure effect in words” value in [4] (in vivo, iv) is “greatest drop in blood pressure of all compounds tested”. Also, the “Blood pressure after drug” value in [4] (in vivo, iv, 0.035 mg/kg) is 97 ± 4.5 mm Hg. Further, where the note is “rat, in vivo”, the “therapeutical indices in words” value is reported as “more favorable therapeutical indices than any of the known substances with similar biological activities”. The “ED50 (hot plate)” value under setting [10] was determined as 0.012 mg./kg.s.c. Moreover, in the data set “in vivo”, the median lethal dose (LD50) is 200 mg/kg. The “Average jump per mouse” value in data set [7] (setting [11]) worked out at 0.9; in data set [7] (setting [12]) it was 3.8. The Jumping mice/examined mice is on record as 3/25 in data set [7] (setting [11]) and 14.25 in data set [7] (setting [12]).
Consider `CCC(=O)C(CC(C)N(C)C)(c1ccccc1)c1ccccc1` (centres unmarked) [Methadone], for which the “ED50 (tail flick test)” value in data set [1] (rat, in vivo, sc) stood at 1.6 s.c. mg./kg. For the same compound, under “rat, in vivo, sc”, the “ED50 (hot plate)” value was found to be 1.9 mg./kg.s.c. Besides, the LD50 in the data set “in vivo” came out at 28 mg/kg. The ED50 in data set [6] came to 0.71 mg/kg.
On to `CN1CC[C@]23c4c5ccc(O)c4O[C@H]2[C@@H](O)C=C[C@H]3[C@H]1C5` [Morphine], for which the “ED50 (tail flick test)” value in data set [1] (rat, in vivo, sc) is given as 1.8 s.c. mg./kg. Also, the figures for the ED50 in data set [3] (iv) and in data set [6] were 0.61 mg/kg and 0.69 mg/kg, respectively. Further, in data set [3] (setting [13]), the AtD100 turned out to be 1.28 ± 0.32 mg/kg i.v. The “Change in blood pressure” value in [4] (anesthetized cats, 1.03 mg/kg i.v.) is recorded as 39 ± 2.1 mm Hg. Also, the “Blood pressure after drug” value in data set [4] (anesthetized cats, 1.03 mg/kg i.v., means ± S.E.) came to 92 ± 1.0 mm Hg. In addition, in data set [4] (anesthetized cats, i.v.), the “blood pressure effect in words” value is recorded as “only morphine produced a biphasic hypotensive effect”. The “ED50 (analgesic)” value in [5] (i.p., hot plate test) is reported as 5 mg./kg. i.p. Moreover, under “rat, in vivo, sc”, the “ED50 (hot plate)” value is recorded as 4.7 mg./kg.s.c. For the same compound, the “Average jump per mouse” value in data set [7] (setting [14]) stood at 9.7; in [7] (setting [15]), 46.4; in data set [7] (setting [16]), 42.7; in data set [7] (setting [17]) it was 48.7. For the same compound, the Jumping mice/examined mice in data set [7] (setting [14]) was 20/25; in data set [7] (setting [15]) it was 25/25; in data set [7] (setting [16]), 25/25; in data set [7] (setting [17]), 25/25.
As for `CN1CC[C@]23c4c5ccc(O)c4O[C@H]2[C@H](N=[N+]=[N-])CC[C@H]3[C@H]1C5` [Azidomorphine, 6-deoxy-6-azido-7,8-dihydroisomorphine], the “ED50 (tail flick test)” value in data set [1] (setting [8]) was found to be 0.012 s.c. mg./kg. Moreover, the figures for the ED50 in data set [2] (setting [9]), in [5] and in data set [6] were 0.034 mg/kg, 0.025 mg/kg and 0.013 mg/kg, respectively. The “Ratio codeine/drug (AtD50)” value in [2] (rats, s.c.) stood at 558.82. The “Change in blood pressure” value in data set [4] (anesthetized cats, 0.0035 mg/kg i.v.) is recorded as 40 ± 3.4 mm Hg. The “Blood pressure after drug” value in data set [4] (anesthetized cats, 0.0035 mg/kg i.v., means ± S.E.) amounted to 103 ± 9.3 mm Hg. The “tolerance to the vasodepressor responses” value in data set [4] (in vivo) is “cross tolerance between morphine, codeine, azidomorphine and 14-hydroxyazidomorphine* was observed”. Moreover, under setting [10], the “ED50 (hot plate)” value is given as 0.016 mg./kg.s.c. The compound also yielded a 50% lethal dose (LD50) in “in vivo” of 13 mg/kg. In addition, the “Average jump per mouse” value is given as 0.0 in data set [7] (setting [18]), 1.4 in data set [7] (setting [11]), 10.1 in data set [7] (setting [19]) and 7.4 in [7] (setting [12]). For the same compound, the Jumping mice/examined mice in data set [7] (setting [18]) is given as 0/25; in [7] (setting [11]), 10/25; in [7] (setting [19]), 19/25; in data set [7] (setting [12]) it was 12/25.
In the case of `CC(C)=CCN1CCC2(C)c3cc(O)ccc3CC1C2C` (centres unmarked) [Pentazocine], the “ED50 (tail flick test)” value in data set [1] (setting [8]) was found to be 12 s.c. mg./kg. In addition, the “ED50 (hot plate)” value under setting [10] came out at 9.1 mg./kg.s.c. Further, in the data set “in vivo”, the 50% lethal dose (LD50) amounted to 280 mg/kg. Moreover, the ED50 in data set [6] amounted to 8.1 mg/kg.
In the case of `COc1ccc2c3c1O[C@H]1[C@H](N=[N+]=[N-])CC[C@H]4[C@@H](C2)N(C)CC[C@@]341` [Azidocodeine], the “Ratio codeine/drug (AtD50)” value in data set [2] (rats, s.c.) came out at 12.10. Moreover, the AtD50 in data set [2] (rats, s.c., limits in brackets) is 1.57 (1.20-2.41) mg/kg s.c. Also, in data set [3] (cats, i.v.), the AtD50 amounted to 0.40 mg/kg i.v, the “Ratio codeine/drug (AtD50)” value is recorded as 3.63 and the “Ratio codeine/drug (AtD100)” value is reported as 4.69. In addition, in [3] (setting [13]), the AtD100 is reported as 1.08 ± 0.04 mg/kg i.v. The “Change in blood pressure” value in data set [4] (setting [20]) was 6 ± 3.8 mm Hg. Also, the “Blood pressure after drug” value in data set [4] (setting [21]) was found to be 122 ± 5.2 mm Hg. In addition, the “blood pressure effect in words” value in data set [4] (anesthetized cats, i.v.) is “The substances studied, except azidocodeine and 14-hydroxy-azidocodeine, lowered blood pressure”.
Consider `COc1ccc2c3c1O[C@H]1C(N=[N+]=[N-])CC[C@@]4(O)[C@@H](C2)N(C)CC[C@]314` (some centres unmarked) [14-OH-azidocodeine], for which the ED50 in [2] (setting [9]) is 0.82 mg/kg; in [3] (iv, cats, i.v.), 0.6 mg/kg. Moreover, the “Ratio codeine/drug (AtD50)” value in data set [2] (rats, s.c.) is 23.17; in [3] (cats, i.v.) it was 2.42. For the same compound, in [3] (setting [22]), the ED100 amounted to 1.47 ± 0.07 mg/kg. The “Ratio codeine/drug (AtD100)” value in [3] (cats, i.v.) is 2.91. Also, the “Change in blood pressure” value in [4] (setting [20]) stood at 3 ± 1.3 mm Hg. Besides, the “Blood pressure after drug” value in [4] (setting [21]) was determined as 126 ± 6.6 mm Hg. Besides, in data set [4] (anesthetized cats, i.v.), the “blood pressure effect in words” value was “The substances studied, except azidocodeine and 14-hydroxy-azidocodeine, lowered blood pressure”.
As for `COc1ccc2c3c1O[C@H]1[C@@H](O)C=C[C@H]4[C@@H](C2)N(C)CC[C@@]341` [Codeine], the ED50 in data set [2] (setting [9]) came to 19 mg/kg; in data set [2] (rats, oral, limits in brackets) it was 100 mg/kg; in data set [3] (iv, cats, i.v.) it was 1.45 mg/kg. Besides, the ED100 in data set [3] (setting [22]) turned out to be 5.07 ± 1.87 mg/kg. For the same compound, the “Change in blood pressure” value in [4] (anesthetized cats, 1.5 mg/kg i.v.) came out at 26 ± 4.9 mm Hg. In addition, in data set [4] (anesthetized cats, 1.5 mg/kg i.v., means ± S.E.), the “Blood pressure after drug” value is given as 98 ± 5.3 mm Hg. Besides, in data set [4] (anesthetized cats, successive administrations), the “tolerance to the vasodepressor responses” value was “cross tolerance between morphine, codeine, azidomorphine and 14-hydroxyazidomorphine* was observed”.
Regarding `CCOC(=O)C1(c2ccccc2)CCN(C)CC1` [Petidine], the “ED50 (tail flick test)” value in data set [1] (setting [8]) stood at 4.3 s.c. mg./kg. Besides, the “ED50 (hot plate)” value under setting [10] is listed as 4.9 mg./kg.s.c. In addition, the LD50 in “in vivo” was 280 mg/kg. Further, the ED50 in [6] came out at 3.3 mg/kg.
